Blank lines part the entries; values can stand above or below the compound they belong to.
How the values were obtained:
[1] = Drug level in mouse liver microsomes treated with N-phenyl-6-(pyridin-2-yl)imidazo[1,2-a]pyridine-2-carboxamide assessed as metabolite formation; format: ADME, Microsome
[2] = target: Nuclear receptor subfamily 4 group A member 2 (Homo sapiens, UniProt P43354); experiment: Agonist activity at full-length Gal4-fused NOT (unknown origin) expressed in CHO cells by luciferase reporter gene assay; format: cell-based
Chain of Nuclear receptor subfamily 4 group A member 2 (Homo sapiens, UniProt P43354) (P43354 whole entry, the tested form may be a part): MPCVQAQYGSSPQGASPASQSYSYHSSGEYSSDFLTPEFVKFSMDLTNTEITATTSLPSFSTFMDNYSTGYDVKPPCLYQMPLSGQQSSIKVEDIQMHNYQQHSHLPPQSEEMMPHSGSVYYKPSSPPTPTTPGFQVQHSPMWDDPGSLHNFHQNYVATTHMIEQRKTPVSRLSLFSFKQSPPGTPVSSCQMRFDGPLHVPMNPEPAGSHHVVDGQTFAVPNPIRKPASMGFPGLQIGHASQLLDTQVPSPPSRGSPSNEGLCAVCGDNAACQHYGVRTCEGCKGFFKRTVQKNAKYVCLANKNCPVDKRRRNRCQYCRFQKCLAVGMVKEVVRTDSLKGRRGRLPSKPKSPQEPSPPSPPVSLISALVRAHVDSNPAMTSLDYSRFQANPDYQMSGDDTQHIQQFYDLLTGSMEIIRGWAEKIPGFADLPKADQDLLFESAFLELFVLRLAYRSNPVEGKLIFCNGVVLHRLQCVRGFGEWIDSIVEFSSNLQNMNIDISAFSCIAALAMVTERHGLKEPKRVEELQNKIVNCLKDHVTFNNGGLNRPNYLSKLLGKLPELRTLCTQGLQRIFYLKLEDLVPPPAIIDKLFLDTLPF

[3] = target: Nuclear receptor subfamily 4 group A member 2 (Mus musculus) (UniProt Q06219); experiment: (§1) Agonist activity at Nurr1 in mouse N2A cells harboring NBRE by luciferase reporter gene assay; format: cell-based
Chain of Nuclear receptor subfamily 4 group A member 2 (Mus musculus) (Q06219 whole entry): as the sequence (P43354 whole entry, the tested form may be a part) above, with T131S, G134S, E354D counted along it

[4] = target: Nuclear receptor subfamily 4 group A member 2 (Mus musculus, UniProt Q06219); experiment: as §1; format: cell-based
Chain of Nuclear receptor subfamily 4 group A member 2 (Mus musculus, UniProt Q06219) (Q06219 whole entry): as the sequence (P43354 whole entry, the tested form may be a part) above, with T131S, G134S, E354D counted along it

[5] = Clearance in human hepatocytes assessed per million cells; format: ADME, cell-based, Hepatocyte
[6] = Dissociation constant, pKa of the compound; format: physicochemical
[7] = target: Nuclear receptor subfamily 4 group A member 2 (Mus musculus) (UniProt Q06219); experiment: Agonist activity at Nurr1 in co-culture of mouse primary neurons and microglia assessed as inhibition of LPS-induced neurotoxicity by measuring neuroprotection at 10 uM; parameters: scale not given: the % may be the effect or the level left
[8] = Apparent permeability in human Caco2 cells; format: ADME, cell-based; conditions: caco-2
Cytochrome P450 2D6 = Cytochrome P450 2D6 (Homo sapiens, UniProt P10635); experiment: Inhibition of CYP2D6 (unknown origin); format: ADME
Chain of Cytochrome P450 2D6 (P10635 whole entry): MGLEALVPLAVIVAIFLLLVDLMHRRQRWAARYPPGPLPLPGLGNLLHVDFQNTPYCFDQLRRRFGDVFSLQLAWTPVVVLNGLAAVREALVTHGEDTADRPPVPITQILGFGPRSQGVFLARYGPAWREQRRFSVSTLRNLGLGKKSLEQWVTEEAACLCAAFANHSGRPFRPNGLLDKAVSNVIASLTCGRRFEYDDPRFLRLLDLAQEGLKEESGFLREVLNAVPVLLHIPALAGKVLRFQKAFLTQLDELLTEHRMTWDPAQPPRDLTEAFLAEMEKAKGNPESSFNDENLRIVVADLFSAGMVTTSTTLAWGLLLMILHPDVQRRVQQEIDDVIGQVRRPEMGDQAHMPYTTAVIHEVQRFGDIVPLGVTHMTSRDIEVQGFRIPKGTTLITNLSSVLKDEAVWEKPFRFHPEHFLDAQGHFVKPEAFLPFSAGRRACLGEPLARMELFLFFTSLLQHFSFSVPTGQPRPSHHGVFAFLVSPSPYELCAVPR

CYP450 = CYP450 (Homo sapiens, UniProt P04798+P05177+P05181+P08684+P10632+P10635+P11509+P11712+P13584+P20813+P20815+P20853+P24462+P24903+P33260+P33261+P51589+P78329+P98187+Q02928+Q08477+Q16678+Q16696+Q5TCH4+Q6VVX0+Q7Z449+Q8TAV3+Q96SQ9+Q9HB55); experiment: Induction of CYP450 (unknown origin); format: ADME, protein assay
[9] = target: Nuclear receptor subfamily 4 group A member 2 (Mus musculus) (UniProt Q06219); experiment: Agonist activity at Nurr1 in co-culture of mouse primary neurons and microglia assessed as inhibition of LPS-induced neurotoxicity by measuring neuroprotection at 3 uM; parameters: scale not given: the % may be the effect or the level left
Cytochrome P450 3A4 = Cytochrome P450 3A4 (Homo sapiens, UniProt P08684); experiment: Inhibition of CYP3A4 (unknown origin); format: ADME
Chain of Cytochrome P450 3A4 (P08684 whole entry): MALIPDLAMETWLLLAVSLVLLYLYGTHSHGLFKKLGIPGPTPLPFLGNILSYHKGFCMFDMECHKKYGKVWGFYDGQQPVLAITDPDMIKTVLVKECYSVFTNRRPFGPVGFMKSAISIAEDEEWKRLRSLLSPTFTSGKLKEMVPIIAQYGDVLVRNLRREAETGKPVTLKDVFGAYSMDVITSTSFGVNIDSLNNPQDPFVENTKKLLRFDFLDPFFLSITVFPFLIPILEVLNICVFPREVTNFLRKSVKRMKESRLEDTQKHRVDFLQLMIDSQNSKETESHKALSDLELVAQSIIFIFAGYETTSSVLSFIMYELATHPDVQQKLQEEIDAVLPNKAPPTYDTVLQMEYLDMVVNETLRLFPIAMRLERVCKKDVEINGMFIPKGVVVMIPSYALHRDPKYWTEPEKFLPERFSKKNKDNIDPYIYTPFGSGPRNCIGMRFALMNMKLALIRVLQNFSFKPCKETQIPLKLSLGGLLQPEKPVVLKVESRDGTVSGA

[10] = Drug metabolism in human liver microsomes; format: ADME, Microsome; conditions: read-out: Drug metabolism
[11] = Lipophilicity, log D of the compound; format: physicochemical; conditions: octanol/water
[12] = target: Nuclear receptor subfamily 4 group A member 2 (Rattus norvegicus) (UniProt Q07917); experiment: Agonist activity at Nurr1 in rat mesencephalic primary neurons assessed as increase in tyrosine hydroxylase expression at 3 uM
Chain of Nuclear receptor subfamily 4 group A member 2 (Rattus norvegicus) (Q07917 whole entry): as the sequence (P43354 whole entry, the tested form may be a part) above, with T131S, P182R, E354D counted along it

[13] = target: Nuclear receptor subfamily 4 group A member 2 (Mus musculus) (UniProt Q06219); experiment: Agonist activity at Nurr1 in mouse MG7 cells assessed as inhibition of LPS-induced IL1beta secretion at 3 uM; format: cell-based
Cytochrome P450 2C9 = Cytochrome P450 2C9 (Homo sapiens, UniProt P11712); experiment: Inhibition of CYP2C9 (unknown origin); format: ADME
Chain of Cytochrome P450 2C9 (P11712 whole entry): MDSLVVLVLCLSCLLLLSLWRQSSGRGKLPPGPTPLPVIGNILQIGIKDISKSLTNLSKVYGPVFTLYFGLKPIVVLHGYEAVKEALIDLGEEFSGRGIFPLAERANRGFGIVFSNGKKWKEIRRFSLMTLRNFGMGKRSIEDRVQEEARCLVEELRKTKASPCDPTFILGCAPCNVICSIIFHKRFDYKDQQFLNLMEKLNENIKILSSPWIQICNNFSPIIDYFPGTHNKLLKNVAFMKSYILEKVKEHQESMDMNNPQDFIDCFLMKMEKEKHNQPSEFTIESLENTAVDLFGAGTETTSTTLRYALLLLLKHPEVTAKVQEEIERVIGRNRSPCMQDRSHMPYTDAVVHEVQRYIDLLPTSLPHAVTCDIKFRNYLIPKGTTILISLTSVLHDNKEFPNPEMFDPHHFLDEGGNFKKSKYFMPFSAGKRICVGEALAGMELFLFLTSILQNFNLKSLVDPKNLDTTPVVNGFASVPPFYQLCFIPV

[14] = Drug metabolism in mouse liver microsomes; format: ADME, Microsome; conditions: read-out: Drug metabolism
[15] = Stability in human plasma; format: ADME, cell-free
[16] = Solubility of the compound by HPLC analysis; format: physicochemical
[17] = target: Voltage-gated inwardly rectifying potassium channel KCNH2 (Homo sapiens, UniProt Q12809); experiment: Activation of human ERG
Chain of Voltage-gated inwardly rectifying potassium channel KCNH2 (Q12809 whole entry): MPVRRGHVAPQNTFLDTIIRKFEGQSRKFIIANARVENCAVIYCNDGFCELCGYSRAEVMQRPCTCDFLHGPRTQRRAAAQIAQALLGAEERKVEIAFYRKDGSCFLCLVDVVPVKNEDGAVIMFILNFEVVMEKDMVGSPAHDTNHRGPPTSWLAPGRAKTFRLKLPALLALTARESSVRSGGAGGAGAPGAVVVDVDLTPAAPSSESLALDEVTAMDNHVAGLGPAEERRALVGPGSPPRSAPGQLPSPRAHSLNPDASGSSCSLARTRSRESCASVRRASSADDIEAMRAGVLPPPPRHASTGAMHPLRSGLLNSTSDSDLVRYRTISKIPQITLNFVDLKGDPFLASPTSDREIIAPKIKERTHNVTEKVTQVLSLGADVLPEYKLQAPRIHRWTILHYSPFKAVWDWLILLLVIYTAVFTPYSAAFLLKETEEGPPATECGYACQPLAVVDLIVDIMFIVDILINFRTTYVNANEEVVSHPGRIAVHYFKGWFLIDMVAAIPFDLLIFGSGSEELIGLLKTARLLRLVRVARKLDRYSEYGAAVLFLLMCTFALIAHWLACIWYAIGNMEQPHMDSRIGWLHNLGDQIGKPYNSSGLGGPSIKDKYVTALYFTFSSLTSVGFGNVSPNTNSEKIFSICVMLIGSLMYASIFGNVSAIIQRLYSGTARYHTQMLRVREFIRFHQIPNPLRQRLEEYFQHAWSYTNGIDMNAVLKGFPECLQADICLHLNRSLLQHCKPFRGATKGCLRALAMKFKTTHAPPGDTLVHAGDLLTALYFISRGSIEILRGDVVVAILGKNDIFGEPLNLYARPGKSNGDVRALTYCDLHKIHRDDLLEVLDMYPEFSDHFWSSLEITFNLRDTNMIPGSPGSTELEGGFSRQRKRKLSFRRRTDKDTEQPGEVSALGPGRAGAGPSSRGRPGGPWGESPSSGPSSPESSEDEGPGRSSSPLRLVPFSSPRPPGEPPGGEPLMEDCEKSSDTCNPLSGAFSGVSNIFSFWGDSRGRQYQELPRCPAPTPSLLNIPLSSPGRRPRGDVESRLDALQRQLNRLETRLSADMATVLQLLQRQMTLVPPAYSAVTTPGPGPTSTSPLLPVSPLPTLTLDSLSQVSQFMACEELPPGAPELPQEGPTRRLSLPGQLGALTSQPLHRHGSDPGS

[18] = Genotoxicity in Salmonella typhimurium by Ames test; format: toxicity; conditions: salmonella enterica subsp. enterica serovar typhimurium
[19] = Stability in mouse plasma; format: ADME, cell-free
[20] = Drug metabolism in human hepatocytes assessed as 3-(2-(4-chlorophenyl)imidazo[1,2-a]pyridin-6-yl)benzoic acid formation; format: ADME, cell-based, Hepatocyte

EC50 ([2]; cho): Not Active
SMILES: OCc1cccc(-c2ccc3nc(-c4ccc(Cl)cc4)nn3n2)c1

EC50 ([2]; read-out: EC50): > 3000 nM
SMILES: CCCCCCC(O)c1cccc(-c2ccc3nc(-c4ccc(Cl)cc4)cn3c2)c1 (centres undefined)

EC50 ([2]; read-out: EC50): > 1000 nM
SMILES: OC1(c2cccc(-c3ccc4nc(-c5ccc(Cl)cc5)cn4c3)c2)CCOCC1

EC50 ([2]; read-out: EC50): > 1000 nM
SMILES: Cc1ccc(-c2ccc3nc(-c4ccc(Cl)cc4)cn3c2)cc1CO

EC50 ([2]; read-out: EC50): > 3000 nM
SMILES: OC(c1ccccc1)c1cccc(-c2ccc3nc(-c4ccc(Cl)cc4)cn3c2)c1 (centres undefined)

EC50 ([2]; read-out: EC50): > 1000 nM
SMILES: CCC(O)c1cccc(-c2ccc3nc(-c4ccc(Cl)cc4)cn3c2)c1 (centres undefined)

EC50 ([2]; read-out: EC50): 219 nM
SMILES: CC(O)c1cccc(-c2ccc3nc(-c4ccc(Cl)cc4)cn3c2)c1 (single isomer, unassigned; (-))

CLH [5]: 0.188 mL/h
EC50 ([2]; read-out: EC50): 14 nM
SMILES: OCc1cccc(-c2ccc3nc(-c4ccc(Cl)cc4)cn3c2)c1F

pKa [6]: 5.16
Emax [3]: 240%
EC50 [4]: 1 nM
permeability [8]: Permeable
IC50 (Cytochrome P450 2D6): > 10000 nM
Emax (CYP450): < 20%
IC50 (Cytochrome P450 3A4): > 10000 nM
metabolised [10]: 22%
logD [11]: 2.95
CLH [5]: 0.42 mL/h
Activity [12]: 188 to 313%
inhibition [13]: 58%
IC50 (Cytochrome P450 2C9): 8600 nM
metabolised [14]: 8%
Stability [15]: Stable
Emax [2]: 239%
EC50 ([2]; read-out: EC50): 45 to 75 nM
solubility [16]: < 1 µM
Stability [19]: Stable
Drug metabolism [20]: Metabolite_Detected
SMILES: OCc1cccc(-c2ccc3nc(-c4ccc(Cl)cc4)cn3c2)c1
Activity [7]: 65%
Activity [9]: 37%
EC50 [17]: 900 nM
Activity [18]: Non-Toxic

Emax [2]: 226%
SMILES: CNC(=O)c1cccc(-c2ccc3nc(-c4ccc(Cl)cc4)cn3c2)c1

EC50 ([2]; read-out: EC50): 323 nM
SMILES: OC1(c2cccc(-c3ccc4nc(-c5ccc(Cl)cc5)cn4c3)c2)COC1

EC50 ([2]; cho): Not Active
SMILES: OCc1cccc(-c2cn3cc(-c4ccc(Cl)cc4)nc3cn2)c1

EC50 ([2]; read-out: EC50): > 3000 nM
SMILES: OC(c1cccc(-c2ccc3nc(-c4ccc(Cl)cc4)cn3c2)c1)C1CCCC1 (centres undefined)

Emax [3]: 64%
EC50 ([2]; read-out: EC50): > 1000 nM
SMILES: O=C(Nc1cccc(F)c1F)c1cn2cc(-c3ccccn3)ccc2n1

EC50 ([2]; read-out: EC50): > 3000 nM
SMILES: CNCc1cccc(-c2ccc3nc(-c4ccc(Cl)cc4)cn3c2)c1

EC50 ([2]; cho): Not Active
SMILES: OCc1cccc(-c2ccc3nc(-c4ccc(Cl)cc4)cn3n2)c1

More lines, now with the values behind:

SMILES: Nc1ccccc1 [ANILINE]
Drug metabolism [1]: Metabolite_Detected

SMILES: O=C(Nc1cc(F)cc(F)c1)c1cn2cc(-c3ccccn3)ccc2n1
Emax [3]: 85%
EC50 [4]: 2.5 nM
EC50 ([2]; read-out: EC50): > 1000 nM

SMILES: O=C(Nc1ccsc1)c1cn2cc(-c3ccccn3)ccc2n1
Emax [3]: 85%
EC50 [4]: 1 nM
EC50 ([2]; read-out: EC50): > 1000 nM

SMILES: O=C(Nc1nncs1)c1cn2cc(-c3ccccn3)ccc2n1
Emax [3]: 70%
EC50 [4]: 67.6 nM
EC50 ([2]; read-out: EC50): > 1000 nM

SMILES: O=C(Nc1ccon1)c1cn2cc(-c3ccccn3)ccc2n1
Emax [3]: 62%
EC50 [4]: 20 nM
EC50 ([2]; read-out: EC50): > 1000 nM

SMILES: O=C(Nc1cnoc1)c1cn2cc(-c3ccccn3)ccc2n1
Emax [3]: 85%
EC50 [4]: 55 nM
EC50 ([2]; read-out: EC50): > 1000 nM

SMILES: O=C(Nc1nccs1)c1cn2cc(-c3ccccn3)ccc2n1
Emax [3]: 72%
EC50 ([2]; read-out: EC50): > 1000 nM

SMILES: N#Cc1ccccc1NC(=O)c1cn2cc(-c3ccccn3)ccc2n1
Emax [3]: 52%
EC50 [4]: 292 nM
EC50 ([2]; read-out: EC50): > 1000 nM

SMILES: O=C(Nc1ccccc1Cl)c1cn2cc(-c3ccccn3)ccc2n1
Emax [3]: 68%
EC50 [4]: 26.5 nM
EC50 ([2]; read-out: EC50): > 1000 nM

SMILES: O=C(O)c1cn2cc(-c3ccccn3)ccc2n1
Drug metabolism [1]: Metabolite_Detected

SMILES: O=C(Nc1ccccn1)c1cn2cc(-c3ccccn3)ccc2n1
Emax [3]: 87%
EC50 [4]: 2 nM
EC50 ([2]; read-out: EC50): > 1000 nM

— ChEMBL document CHEMBL4368940, “Development of a novel NURR1/NOT agonist from hit to lead and candidate for the potential treatment of Parkinson's disease” (Bioorg Med Chem Lett, 2019)
